Active and inactive are the calls of the source. The calls are words filed in the database; no cut-off is given here.
Experiments:
CHO = test: cells; conditions: Cricetulus griseus, 96 h
KB = test: Antitumor activity against human KB cells assessed as inhibition of cell growth measured upto 96 hrs in presence of adenosine by Cell titer blue assay; type: functional, cell-based

| Compound | IC50 (CHO) | Activity (KB) |
| --- | --- | --- |
| Nc1nc2[nH]cc(CCc3ccc(C(=O)N[C@@H](CCC(=O)O)C(=O)O)cc3)c2c(=O)[nH]1 [PEMETREXED] | 60 nM |  |
| Nc1nc2[nH]c(CCCc3ccc(C(=O)N[C@@H](CCC(=O)O)C(=O)O)s3)cc2c(=O)[nH]1 |  | inactive |
